Data from patent publication US20140142150A1, “TREATING NEUROPSYCHIATRIC DISORDERS” (THE GENERAL HOSPITAL CORPORATION, priority 2011, published 2014).

Tested on: stable schizophrenia patients
Assay: placebo controlled add-on trial of once-weekly D-cycloserine, negative symptoms by modified SANS total score
Assay type: in vivo, human
Description: Study procedures were approved by the Partners HealthCare and Massachusetts Department of Mental Health institutional review boards, and all participants provided written informed consent. A diagnosis of schizophrenia was confirmed by a consensus diagnostic conference based on results from a clinical diagnostic interview, chart review, and review of clinical history with treating physicians.
Subjects were administered the Positive and Negative Syndrome Scale (PANSS) (Kay et al., Schizophrenia Bulletin 13:261-276) to assess symptom severity by trained raters who were blind to genotype.
DNA was obtained from blood samples and genotyped for variants across two genes: G72 and GCPII. Specific variants were selected on the basis of (1) common occurrence in the general population (minor allele frequency >0.2), (2) coding for non-synonymous mutations in amino acid sequences, and (3) previous support in the literature for an association with schizophrenia. No additional genetic variants were studied. Genotyping was conducted using the MASSARRAY® platform (Sequenom, San Diego, Calif.) using the nucleotide primers shown in Table 2.
Negative symptoms were measured by the modified SANS total score at baseline and at week 8, seven days after the last dose of study drug. […] The sample was subsequently enlarged to 45 subjects and G72 genotype was examined as a predictor of response. G72 is the most-validated schizophrenia risk gene that influences activity at the glycine site of the NMDA receptor complex. One G72 SNP, rs3916971 (M21), that achieved significant association with schizophrenia risk in a meta-analysis performed by “SzGene” (Bertram, Schizophr Bull. 34:806-12, 2008) was examined. In the enlarged sample of 45 subjects, the effect size of D-cycloserine improvement of negative symptoms compared to placebo increased to 0.9 and G72 genotype produced a drug x genotype effect size of 0.7. Within subjects receiving D-cycloserine, G72 genotype predicted response with an effect size of 0.9 and within subjects with the TT genotype, the effect size of D-cycloserine improvement of negative symptoms vs. placebo was 2.3 (FIG. 1).

For `N[C@@H]1CONC1=O` [D-cycloserine], which “drug x genotype effect size (G72 rs3916971 genotype)” value (enlarged sample of 45 subjects) is on record?
Its value is 0.7.

What about the “effect size of improvement of negative symptoms compared to placebo” value (enlarged sample of 45 subjects, once-weekly 50 mg) of the same compound?
Its value is 0.9.

What about the “improvement of negative symptoms (modified SANS total score), effect size” value (once-weekly 50 mg add-on to antipsychotics, 38 stable schizophrenia patients, baseline to week 8, vs placebo) of the same compound?
The value was 0.7.

What about the “patients exhibiting a 20% or greater improvement in SANS total score” value (once-weekly 50 mg, 38 patients, week 8 (placebo group 11%)) of the same compound?
Its value is 30%.

And the “G72 genotype prediction of response, effect size” value (within subjects receiving D-cycloserine, enlarged sample)?
Its value is 0.9.

What about the “effect size of improvement of negative symptoms vs. placebo” value (within subjects with the TT genotype at G72 rs3916971 (FIG. 1)) of the same compound?
Its value is 2.3.
